Test results from US20230031406A1, “COMPOUNDS AND COMPOSITIONS FOR TREATING CONDITIONS ASSOCIATED WITH NLRP ACTIVITY” (Novartis AG, priority 2018, published 2023).

tested on: PMA-differentiated THP-1 cells; assay: IL-1β production in PMA-differentiated THP-1 cells stimulated with gramicidin (hTHP-1 assay containing 2% fetal bovine serum; Procedures 1 and 2); assay type: cell-based, human; conditions: Homo sapiens, THP-1, Table B1; 2% fetal bovine serum; class symbols; read-out: Average IC50 of compounds in hTHP-1 assay: hTHP-1 IC50
Outline: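 Compound titrations in 0.37% final DMSO were added to THP-1 cells that had been plated after 16-18 h PMA treatment, 50,000 per well in 2% FBS. One hour later the cells received gramicidin (5 μM, 2 h) and were centrifuged. HTRF detected IL-1β in the collected supernatants.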

`CC(C)(O)c1cc(F)c(S(N)(=O)=NC(=O)Nc2c3c(nc4c2CCC42CC2)CCC3)s1` (stereo not shown) [Compound 101, 3-fluoro-5-(2-hydroxypropan-2-yl)-N′-((1′,5′,6′,7′-tetrahydro-2′H-spiro[cyclopropane-1,3′-dicyclopenta[b,e]pyridin]-8′-yl)carbamoyl)thiophene-2-sulfonimidamide] and `CC(C)(O)c1cc(F)c(S(N)(=O)=NC(=O)Nc2c3c(nc4c2CCC4(C)C)CCC3)s1` (stereo not shown) [Compound 102, N′-((3,3-dimethyl-1,2,3,5,6,7-hexahydrodicyclopenta[b,e]pyridin-8-yl)carbamoyl)-3-fluoro-5-(2-hydroxypropan-2-yl)thiophene-2-sulfonimidamide] fall in the same range of IC50: 0.04 to 0.2 µM for the first, 0.04 to 0.2 µM for the second.

same assay, conditions: Homo sapiens, THP-1, Table B4; 2% fetal bovine serum; class symbols; read-out: hTHP-1 IC50

`C[C@@H]1CCc2c1nc1c(c2NC(=O)N=S(N)(=O)c2nn(-c3ccccc3)cc2F)CCC1` (single isomer, unassigned) [Example 791, (R) or (S)-4-fluoro-N′-(((R)-3-methyl-1,2,3,5,6,7-hexahydrodicyclopenta[b,e]pyridin-8-yl)carbamoyl)-1-phenyl-1H-pyrazole-3-sulfonimidamide] showed an IC50 of 0.2 to 1 µM.

same assay, conditions: Homo sapiens, THP-1, Table B4; 2% fetal bovine serum; numeric bounds; read-out: hTHP-1 IC50

For `C[C@@H]1CCc2c1nc1c(c2NC(=O)N=S(N)(=O)c2nn(-c3ccccc3)cc2F)CCC1` (single isomer, unassigned) [Example 792, (S) or (R)-4-fluoro-N′-(((R)-3-methyl-1,2,3,5,6,7-hexahydrodicyclopenta[b,e]pyridm-8-yl)carbamoyl)-1-phenyl-1H-pyrazole-3-sulfonimidamide], the IC50 was > 30 µM.

same assay, conditions: Table B1; 2% fetal bovine serum; class symbols; read-out: Average IC50 of compounds in hTHP-1 assay: hTHP-1 IC50

Compared with `CC1CCc2c1nc1c(c2NC(=O)N=S(N)(=O)c2cc(C(C)(C)O)cs2)CCC1C` (stereo not shown) [131f^], `CC1CCc2c1nc1c(c2NC(=O)N=S(N)(=O)c2sc(C(C)(C)O)cc2F)CCC1` (stereo not shown) [Compound 103, 3-fluoro-5-(2-hydroxypropan-2-yl)-N′-((3-methyl-1,2,3,5,6,7-hexahydrodicyclopenta[b,e]pyridin-8-yl)carbamoyl)thiophene-2-sulfonimidamide] is lower in IC50: 1 to 5 µM for the first, 0.04 to 0.2 µM for the second. The second is the more potent here.

same assay, conditions: Table B4; 2% fetal bovine serum; class symbols; read-out: hTHP-1 IC50

Compared with `CCn1cc(F)c(S(N)(=O)=NC(=O)Nc2c3c(nc(C(F)(F)F)c2C2CC2)CCC3)n1` (single isomer, unassigned) [Example 774, (S) or (R)-N′-((3-cyclopropyl-2-(trifluoromethyl)-6,7-dihydro-5H-cyclopenta[b]pyridin-4-yl)carbamoyl)-1-ethyl-4-fluoro-1H-pyrazole-3-sulfonimidamide], `NS(=O)(=NC(=O)Nc1c2c(nc(C(F)(F)F)c1C1CC1)CCC2)c1nn(C(F)F)cc1F` (single isomer, unassigned) [Example 775, (R) or (S)-N′-((3-cyclopropyl-2-(trifluoromethyl)-6,7-dihydro-5H-cyclopenta[b]pyridin-4-yl)carbamoyl)-1-(difluoromethyl)-4-fluoro-1H-pyrazole-3-sulfonimidamide] is lower in IC50: 5 to 30 µM for the first, 0.04 to 0.2 µM for the second. The second is the more potent here.

Compared with `NS(=O)(=NC(=O)Nc1c2c(nc(C(F)(F)F)c1C1CC1)CCC2)c1nn(C(F)F)cc1F` (single isomer, unassigned) [Example 776, (S) or (R)-N′-((3-cyclopropyl-2-(trifluoromethyl)-6,7-dihydro-5H-cyclopenta[b]pyridin-4-yl)carbamoyl)-1-(difluoromethyl)-4-fluoro-1H-pyrazole-3-sulfonimidamide], `Cc1c(C(F)(F)F)nc2c(c1NC(=O)N=S(N)(=O)c1nn(C(C)C)cc1F)CCC2` (single isomer, unassigned) [Example 789, (R) or (S)-4-fluoro-1-isopropyl-N′-((3-methyl-2-(trifluoromethyl)-6,7-dihydro-5H-cyclopenta[b]pyridin-4-yl)carbamoyl)-1H-pyrazole-3-sulfonimidamide] is lower in IC50: 5 to 30 µM for the first, 0.04 to 0.2 µM for the second. The second is the more potent here.

Compared with `CC1(C)CCc2c1nc1c(c2NC(=O)N=S(N)(=O)c2sc(C(O)(CO)CO)nc2CO)CCC1` (single isomer, unassigned) [Example 777, (R) or (S)-N′-((3,3-dimethyl-1,2,3,5,6,7-hexahydrodicyclopenta[b,e]pyridin-8-yl)carbamoyl)-4-(hydroxymethyl)-2-(1,2,3-trihydroxypropan-2-yl)-thiazole-5-sulfonimidamide], `CC(C)n1cc(F)c(S(N)(=O)=NC(=O)Nc2c3c(nc4c2CCC4)CCC3)n1` (single isomer, unassigned) [Example 785, (R) or (S)-4-fluoro-N′-((1,2,3,5,6,7-hexahydrodicyclopenta [b,e]pyridin-8-yl)carbamoyl)-1-isopropyl-1H-pyrazole-3-sulfonimidamide] is lower in IC50: 0.2 to 1 µM for the first, 0.04 to 0.2 µM for the second.

First: CC1(C)CCc2c1nc1c(c2NC(=O)N=S(N)(=O)c2sc(C(O)(CO)CO)nc2CO)CCC1 (single isomer, unassigned) [Example 778, (S) or (R)-N′-((3,3-dimethyl-1,2,3,5,6,7-hexahydrodicyclopenta [b,e]pyridin-8-yl)carbamoyl)-4-(hydroxymethyl)-2-(1,2,3-trihydroxypropan-2-yl)-thiazole-5-sulfonimidamide]
Second: CC(C)n1cc(F)c(S(N)(=O)=NC(=O)Nc2c3c(nc4c2CCC4)CCC3)n1 (single isomer, unassigned) [Example 786, (S) or (R)-4-fluoro-N′-((1,2,3,5,6,7-hexahydrodicyclopenta [b,e]pyridin-8-yl)carbamoyl)-1-isopropyl-1H-pyrazole-3-sulfonimidamide]
The IC50 of the first is lower: 1 to 5 µM for the first, 5 to 30 µM for the second.

`CCn1cc(F)c(S(N)(=O)=NC(=O)Nc2c3c(nc(C(F)(F)F)c2-c2ccccc2F)CCC3)n1` (single isomer, unassigned) [Example 779, (R) or (S)-1-ethyl-4-fluoro-N′-((3-(2-fluorophenyl)-2-(trifluoromethyl)-6,7-dihydro-5H-cyclopenta[b]pyridin-4-yl)carbamoyl)-1H-pyrazole-3-sulfonimidamide] and `CCn1cc(F)c(S(N)(=O)=NC(=O)Nc2c3c(nc(C(F)(F)F)c2-c2cccc(F)c2)CCC3)n1` (single isomer, unassigned) [Example 781, (R) or (S)-1-ethyl-4-fluoro-N′-((3-(3-fluorophenyl)-2-(trifluoromethyl)-6,7-dihydro-5H-cyclopenta[b]pyridin-4-yl)carbamoyl)-1H-pyrazole-3-sulfonimidamide] fall in the same range of IC50: 0.008 to 0.04 µM for the first, 0.008 to 0.04 µM for the second.

`CCn1cc(F)c(S(N)(=O)=NC(=O)Nc2c3c(nc(C(F)(F)F)c2-c2ccccc2F)CCC3)n1` (single isomer, unassigned) [Example 780, (S) or (R)-1-ethyl-4-fluoro-N′-((3-(2-fluorophenyl)-2-(trifluoromethyl)-6,7-dihydro-5H-cyclopenta[b]pyridin-4-yl)carbamoyl)-1H-pyrazole-3-sulfonimidamide] and `CCn1cc(F)c(S(N)(=O)=NC(=O)Nc2c3c(nc(C(F)(F)F)c2-c2cccc(F)c2)CCC3)n1` (single isomer, unassigned) [Example 782, (S) or (R)-1-ethyl-4-fluoro-N′-((3-(3-fluorophenyl)-2-(trifluoromethyl)-6,7-dihydro-5H-cyclopenta[b]pyridin-4-yl)carbamoyl)-1H-pyrazole-3-sulfonimidamide] fall in the same range of IC50: 0.2 to 1 µM for the first, 0.2 to 1 µM for the second.

Compared with `Cc1c(C(F)(F)F)nc2c(c1NC(=O)N=S(N)(=O)c1nn(-c3ccccc3)cc1F)CCC2` (single isomer, unassigned) [Example 783, (R) or (S)-4-fluoro-N′-((3-methyl-2-(trifluoromethyl)-6,7-dihydro-5H-cyclopenta [b]pyridin-4-yl)carbamoyl)-1-phenyl-1H-pyrazole-3-sulfonimidamide], `Cc1c(C(F)(F)F)nc2c(c1NC(=O)N=S(N)(=O)c1nn(C(C)C)cc1F)CCC2` (single isomer, unassigned) [Example 790, (S) or (R)-4-fluoro-1-isopropyl-N′-((3-methyl-2-(trifluoromethyl)-6,7-dihydro-5H-cyclo-penta [b]pyridin-4-yl)carbamoyl)-1H-pyrazole-3-sulfonimidamide] is higher in IC50: 1 to 5 µM for the first, 5 to 30 µM for the second.

Compared with `Cc1c(C(F)(F)F)nc2c(c1NC(=O)N=S(N)(=O)c1nn(-c3ccccc3)cc1F)CCC2` (single isomer, unassigned) [Example 784, (S) or (R)-4-fluoro-N′-((3-methyl-2-(trifluoromethyl)-6,7-dihydro-5H-cyclopenta [b]pyridin-4-yl)carbamoyl)-1-phenyl-1H-pyrazole-3-sulfonimidamide], `CCn1cc(F)c(S(N)(=O)=NC(=O)Nc2c3c(nc(C(F)(F)F)c2-c2ccc(F)cc2)CCC3)n1` (single isomer, unassigned) [Example 787, (R) or (S)-1-ethyl-4-fluoro-N′-((3-(4-fluorophenyl)-2-(trifluoromethyl)-6,7-dihydro-5H-cyclopenta[b]pyridin-4-yl)carbamoyl)-1H-pyrazole-3-sulfonimidamide] is lower in IC50: 5 to 30 µM for the first, 0.008 to 0.04 µM for the second.

First: CCn1cc(F)c(S(N)(=O)=NC(=O)Nc2c3c(nc(C(F)(F)F)c2-c2ccc(F)cc2)CCC3)n1 (single isomer, unassigned) [Example 788, (S) or (R)-1-ethyl-4-fluoro-N′-((3-(4-fluorophenyl)-2-(trifluoromethyl)-6,7-dihydro-5H-cyclopenta[b]pyridin-4-yl)carbamoyl)-1H-pyrazole-3-sulfonimidamide]
Second: CCn1cc(F)c(S(N)(=O)=NC(=O)Nc2c(-c3ccccc3)cnc3c2CCC3)n1 (single isomer, unassigned) [Example 793, (R) or (S)-1-ethyl-4-fluoro-N′-((3-phenyl-6,7-dihydro-5H-cyclopenta[b]pyridin-4-yl)carbamoyl)-1H-pyrazole-3-sulfonimidamide]
The IC50 of the first is higher: 1 to 5 µM for the first, 0.2 to 1 µM for the second.

In the case of `CCn1cc(F)c(S(N)(=O)=NC(=O)Nc2c(-c3ccccc3)cnc3c2CCC3)n1` (single isomer, unassigned) [Example 794, (S) or (R)-1-ethyl-4-fluoro-N′-((3-phenyl-6,7-dihydro-5H-cyclopenta[b]pyridin-4-yl)carbamoyl)-1H-pyrazole-3-sulfonimidamide], the IC50 is reported as 5 to 30 µM.
